From US7189691B2, “Methods and compositions for treating leukemia” (The Administrators of the Tulane Educational Fund, priority 2004, dated 2007)
In brackets after ≈: the same amount, converted by molar mass. Entries after “also recorded” stand apart in the source; their conditions may differ. Read-outs that look alike come from different tables or passages of the source.

How the values were obtained:
MPc3 binding to AF9 = molecular target: T1, MPc3 binding to AF9 (Homo sapiens, UniProt P42568); assay: GST pull-down assay, GST-MPc3(202-362) and biotinylated AF9; parameters: species or system murine; conditions: 25 μg/ml
T1 construct: made in house; host or cells: GST-MPc3 from E. coli; AF9 by coupled in vitro transcription/translation (Promega)
T1 sequence (P42568 211-568): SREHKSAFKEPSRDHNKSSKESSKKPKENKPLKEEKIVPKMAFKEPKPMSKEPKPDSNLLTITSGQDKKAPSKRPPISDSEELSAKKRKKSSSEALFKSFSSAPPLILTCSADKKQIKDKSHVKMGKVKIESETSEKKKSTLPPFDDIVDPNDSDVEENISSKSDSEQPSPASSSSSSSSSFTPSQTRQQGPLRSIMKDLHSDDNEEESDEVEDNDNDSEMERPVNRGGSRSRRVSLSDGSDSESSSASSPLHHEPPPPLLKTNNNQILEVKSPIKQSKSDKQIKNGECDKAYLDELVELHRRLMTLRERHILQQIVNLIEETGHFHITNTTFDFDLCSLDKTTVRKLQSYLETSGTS
Protocol: (§1) To determine if the synthetic peptide could disrupt the AF4-AF9 interaction in vitro, and to determine if the peptide disrupted other binding events with AF9, the following assay was performed. In additional to AF4, the carboxy-terminus of AF9 binds at least two other proteins, the Polycomb protein MPc3 and mBCoR, the mouse homolog of the human BCL-6 corepressor protein (Srinivasan 2003 and Hemenway 2001, both cited above). Using a yeast three hybrid assay similar to that described in Example 1, it was previously shown that mBCoR and FMR2 (an AF4 homolog) can simultaneously bind AF9. […] The sequences of human AF4 and AF9 and murine MPc3 and BCoR can be found in the NCBI database under Accession Nos. P51825, P42568, Q9QXV1, and AAN85318, respectively, incorporated by reference herein.
(§2) Recombinant proteins consisting of glutathione-S-transferase (GST) fused to either (a) amino acids 749–775 of human AF4 SEQ ID NO: 107, (b) amino acids 202–362 of MPc3 SEQ ID NO: 108 or (c) amino acids 925–1759 of mBCoR SEQ ID NO: 109 were isolated from E. coli. These fusion proteins were immobilized on 50 μl glutathione agarose matrix. […]
(§3) After extensive washing with TBST, proteins were resolved by SDS-PAGE and transferred to nitrocellulose. […] Alkaline phosphatase activity was measured by determining the optical density of the samples at 405 nm with a plate spectrophotometer. […]

mBCoR binding to AF9 = molecular target: T2, mBCoR binding to AF9 (Homo sapiens, UniProt P42568); assay: GST pull-down assay, GST-mBCoR(925-1759) and biotinylated AF9; parameters: species or system murine; conditions: 25 μg/ml
T2 construct: made in house; host or cells: GST-mBCoR from E. coli; AF9 by coupled in vitro transcription/translation (Promega)
T2 sequence (P42568 211-568): T1 sequence (P42568 211-568)
Protocol: as §1, §2, §3

[1] = test system: KP-L-RY leukemia cell line; assay: MTT viability assay; type: cell-based; conditions: 72 h, differing concentrations
Protocol: (§4) All cell lines were maintained in RPMI 1640+10% FCS. 100 μl aliquots of cell suspension (5×10^5 cells/ml) were cultured in flat-bottomed 96 well plates in the presence of different concentrations of peptides. After 72 h incubation at 37° C. in humidified air containing 5% CO2, viable cell number was determined by MTT assay as follows: 10 μl of 3-[4,5-dimethylthiazol-2-yl]-2,5-diphenyl tetrazolium bromide (MTT) (5 mg/ml concentration) (Sigma) was added to each well and incubated further for 6 h. Formazan crystals that are formed during incubation were dissolved in 100 μl of acidified isopropanol. The optical density at 550 nm (which is linearly related to the number of viable cells) was measured using a plate spectrophotometer. Growth characteristics of the leukemia cell lines were also determined for cells by Trypan Blue exclusion.

[2] = test system: MV4-11 leukemia cell line; assay: MTT viability assay; type: cell-based; conditions: 72 h, differing concentrations
Protocol: as §4

[3] = test system: RS4;11 leukemia cell line; assay: MTT viability assay and growth curve (Trypan Blue exclusion); type: cell-based; conditions: 100 μg/ml, 72 h
Protocol: as §4

Raji lymphoma cell line = assay: Proliferation test; type: cell-based; conditions: data not shown
NIH 373 cell line = assay: Proliferation test; type: cell-based; conditions: data not shown
B1 cells = assay: Annexin-V/PI binding assay (flow cytometry); type: cell-based; conditions: treated for 24 h
Protocol: To test the possibility that growth inhibition of t(4;11) leukemia cells exposed to PFWT is the result of apoptotic cell death, annexin-V labeling of the cell membrane of the leukemic cells examined in Example 5 was used to assess apoptosis as follows (Koopman, G., et al., Blood 1994 84: 1415–1420.). Annexin V binding assays were carried out using a Vibrant™ apoptosis kit (Molecular Probes). […] For annexin V-propidium iodide (PI) staining, cells were harvested, washed once with PBS and resuspended in 100 μl annexin binding buffer. 5 μl annexin V conjugated to Alexa Fluor 488 and 2 μl of 100 μg/ml PI were added to the cell suspension and incubated at room temperature for 15 minutes. The cells were then washed once in annexin binding buffer and resuspended in 400 μl annexin binding buffer. These samples were then analyzed by flow cytometry using Coulter benchtop flow cytometer. The cells were excited by a 488 nm wavelength laser beam and the emission was measured using a 530 nm filter for annexin V and a 575 nm filter for PI.

Solubility = type: physicochemical
Protocol: PFWT and PFmut are soluble in phosphate buffered saline (PBS) at a concentration of 1 mg/ml and in dimethylsulfoxide (DMSO) at >50 mg/ml (data not shown). In the initial experiments, peptides were dissolved in PBS but were dissolved in DMSO for the majority of the subsequent experiments.

[4] = dimethylsulfoxide (DMSO), read-out: solubility in dimethylsulfoxide (DMSO)
[5] = phosphate buffered saline (PBS), read-out: solubility in phosphate buffered saline (PBS)

| SMILES | displacement of MPc3 from AF9 (MPc3 binding to AF9) | displacement of mBCoR from AF9 (mBCoR binding to AF9) | cell viability [1] | cell viability [2] | proliferation / viability [3] | proliferation (Raji lymphoma cell line) | proliferation (NIH 373 cell line) | cells in early stages of apoptosis (Annexin-V binding, exclusion of PI) (B1 cells) [%] | cells in later stages of apoptosis (positive for Annexin-V and PI) (B1 cells) [%] | solubility (Solubility; [4]) [µg/mL] | solubility (Solubility; [5]) [µg/mL] |
| --- | --- | --- | --- | --- | --- | --- | --- | --- | --- | --- | --- |
| CC[C@H](C)[C@H](NC(=O)[C@H](CCCCN)NC(=O)[C@@H](NC(=O)[C@H](Cc1c[nH]c2ccccc12)NC(=O)[C@H](CC(C)C)NC(=O)[C@H](CCCCN)NC(=O)[C@H](CCCCN)NC(=O)[C@H](Cc1c[nH]c2ccccc12)NC(=O)[C@H](CCCCN)NC(=O)[C@H](CCSC)NC(=O)[C@H](CCCNC(=N)N)NC(=O)[C@H](CCCNC(=N)N)NC(=O)[C@H](CC(N)=O)NC(=O)[C@H](CCC(N)=O)NC(=O)[C@H](Cc1ccccc1)NC(=O)[C@H](Cc1c[nH]c2ccccc12)NC(=O)[C@H](CCCCN)NC(=O)[C@@H](NC(=O)[C@H](CCC(N)=O)NC(=O)[C@@H](N)CCCNC(=N)N)[C@@H](C)CC)C(C)C)C(=O)N[C@@H](CC(=O)O)C(=O)N[C@@H](CC(C)C)C(=O)N[C@@H](CC(=O)O)C(=O)N[C@@H](CC(C)C)C(=O)N[C@@H](CC(C)C)C(=O)N[C@@H](CO)C(=O)N[C@@H](CCCNC(=N)N)C(=O)N[C@H](C(=O)N1CCC[C@H]1C(=O)O)C(C)C [PFWT] | not displaced | not displaced | diminished; also recorded: inhibits | diminished; also recorded: inhibits | completely inhibits proliferation | not affect the proliferation | not affect the proliferation | 45 | 35 | > 50000 | 1000 (≈ 264 µM) |
| CC[C@H](C)[C@H](NC(=O)[C@H](CCC(N)=O)NC(=O)[C@@H](N)CCCNC(=N)N)C(=O)N[C@@H](CCCCN)C(=O)N[C@@H](Cc1c[nH]c2ccccc12)C(=O)N[C@@H](Cc1ccccc1)C(=O)N[C@@H](CCC(N)=O)C(=O)N[C@@H](CC(N)=O)C(=O)N[C@@H](CCCNC(=N)N)C(=O)N[C@@H](CCCNC(=N)N)C(=O)N[C@@H](CCSC)C(=O)N[C@@H](CCCCN)C(=O)N[C@@H](Cc1c[nH]c2ccccc12)C(=O)N[C@@H](CCCCN)C(=O)N[C@@H](CCCCN)C(=O)N[C@@H](CC(C)C)C(=O)N[C@@H](Cc1c[nH]c2ccccc12)C(=O)N[C@@H](CCC(=O)O)C(=O)N[C@@H](CCCCN)C(=O)N[C@@H](CO)C(=O)N[C@@H](CC(=O)O)C(=O)N[C@@H](CC(C)C)C(=O)N[C@@H](CC(=O)O)C(=O)N[C@@H](CC(C)C)C(=O)N[C@@H](CC(C)C)C(=O)N[C@@H](CO)C(=O)N[C@@H](CCCNC(=N)N)C(=O)N[C@H](C(=O)N1CCC[C@H]1C(=O)O)C(C)C [PFmut] | – | – | much less sensitive | – | – | – | – | – | – | > 50000 | 1000 (≈ 264 µM) |
